The record followed here is patent publication US6541027B1, “Lactic acid bacteria with anxiolytic properties and uses thereof” (Compagnie Gervais Danone, priority 1999, dated 2003).

Structures are written as SMILES. “Also recorded” adds a separate entry of the source.

Data set [1] deals with SPF Wistar/AF male rats. Kind of data set: Sedative effect (locomotive and exploratory activity) during the Conditioned Defensive Burying test. It counts as in vivo, rat. The conditions noted are these: Example 2; test 1 on day 6; 5 ml/kg p.o. daily (diazepam 3 mg/kg p.o.). As to the method:
The tests were carried out according to the protocol described in example 2 above, on one hundred and fifty eight SPF Wistar/AF males (IFFA-CREDO breeding center, 69—St Germain sur Arbresles, France) weighing 260 to 280 g. After a week's familiarization with the laboratory conditions, the rats were randomly divided into 13 treatment groups. The rats of the various groups were handled in the same manner and under the same conditions.
All the products were orally administered daily for 6 days at the same times at the doses of 5 ml/kg using syringes equipped with intragastric forced-feeding probes (HARVARD APPARATUS, 91—Les Ulis, France). On the day for the test, they were administered 6 hours before the burying test.
number of […]: the rat adopts the vertical position while resting on its hind legs;
number of passes from one side of the cage to another.

Data set [2] relates to SPF Wistar/AF male rats. Briefly: Conditioned Defensive Burying test, overall stress score. Type of data set: in vivo, rat. To be noted: for overall stress score during test 2: test 2 on day 8, 6 hours after administration (diazepam 3 mg/kg p.o. daily, 1 hour before test); for overall stress score: 5 ml/kg p.o. daily for 6 days. As for the experimental part:
The anxiolytic effect is evaluated using the Conditioned Defensive Burying model, which was developed from the procedure by J. P. PINEL and D. TREIT (PINEL and TREIT, J. Comp. & Physiol. Psychol., 92, 708-712, 1978; TREIT et al., Pharmacol. Biochem. Behav., 15, 619-626, 1981). This model uses the natural propensity of most rodents to bury themselves from a stressful source of stimulus (TREIT, Pharmacol. Biochem. Behav., 22, 1, 47-52, 1985; MEERT and COLPAERT, Psychopharmacology, 88, 445-450, 1986; CRAFT et al., Pharmacol. Biochem. Behav., 30, 3, 775-780, 1988; TREIT, Pharmacol. Biochem. Behav., 36, 203-205, 1990).
Seventy two SPF Wistar/AF male rats (IFFA-CREDO breeding center, 69—St-Germain sur l'Arbresle, France) weighing 320 to 340 g were used. On reception, the rats were weighed, marked and divided into groups of 4 in type F polycarbonate cages (48×27×20 cm, U.A.R., 91—Epinay-Sur-Orge, France). The animals were stalled in an air-conditioned animal house, at a temperature of 22-24° C. Food (M25 biscuits, Ets […], 77—Provins, France) and drink were available to the rats ad libitum. They were subjected to a light-darkness cycle of 12 hours (light from 24 h to 12 h).
After a week's familiarization with the laboratory conditions, the 72 rats were randomly divided into 6 groups (n=12). The rats in the different groups were all handled in the same way and under the same conditions.
Habituation and the tests were carried out in a transparent cage having the dimensions 44×28×18 cm, whose base is covered with sawdust over a thickness of 5 cm. In the middle of a lateral face, an orifice allows the attachment of an electric probe, 2 cm above the level of the sawdust.
It is a probe made of plexiglas having the dimensions 7×2×0.5 cm, covered with a copper printed circuit in which the gap between the wires is 1 mm, chosen so that one leg of the rat coming to rest on the probe easily makes contact between them, thus allowing the passage of current.
The probe is connected to a manually triggered generator of electric shocks of 0 to 8 mA (OPEN-SYSTEMS, 54—Maxeville, France).
In the faintly illuminated experimental room, a video camera was placed in front of the cage of the setup, at a distance of one meter. The camera is connected to a video recorder and to a control monitor, which are placed in an adjacent room with the electric shock generator.
The experiment was carried out according to a double blind design.
During the 2 days preceding the first test, the rats were transported from the animal house to the experimental room and introduced into the experimental device in order to habituate them to both the handling and to the cage of the device in the absence of the electrode. Each group of 4 rats was placed in the device for 20 minutes. The sawdust is changed, leveled to a uniform height of 5 cm, before the period of habituation of each of the groups.
The electric probe is inserted into the cage before the beginning of the first test. Each rat is placed in the experimental cage on the side opposite the probe.
During the first test (test 1), a single electric shock, of low intensity (2 mA) is delivered to the animal when it places a hind leg for the first time on the probe.
Following the electric shock, the behavior of each rat is recorded for 5 minutes. […] The probe is cleaned after each rat and the sawdust is changed and leveled to a uniform height of 5 cm before the test session for each cage of rats.
The products L, 3ST, 3S and 3S+P were orally administered daily at the same times, at the doses of 5 ml/kg by means of syringes provided with intragastric forced-feeding probes (HARVARD APPARATUS, 91—Les Ulis, France). The burying tests (test 1 on day 6 and test 2 on day 8) were carried out 6 hours after the administration of the products.
The positive control is diazepam (3 mg/kg), which was suspended in an aqueous solution of methyl cellulose at 1% and was orally administered daily, for the same period. […]

Consider `CN1C(=O)CN=C(c2ccccc2)c2cc(Cl)ccc21` [diazepam], for which the “sedative effect during test 1” value with SPF Wistar/AF male rats [1] is given as “sedative effect”. For the same molecule, in the data set on SPF Wistar/AF male rats [2] (Example 2, 5 ml/kg p.o. daily, test 1 on day 6, 6 hours after administration (diazepam 3 mg/kg p.o. daily, 1 hour before test), vs. control product L), the “overall stress score during test 1” value is “tends to reduce the overall stress score; also recorded: showed only a trend to reduce the overall stress score”. Also, the “overall stress score during test 2” value in the data set on SPF Wistar/AF male rats [2] (Example 2, 5 ml/kg p.o. daily, vs. control product L) is given as “not significantly different from the product L”; in the data set on SPF Wistar/AF male rats [2] (Example 2, 5 ml/kg p.o. daily, vs. control product L, listed as Diazepam) it was “no effect which is statistically different from that of the control”. Also, the “phenomenon of tolerance (habituation) between test 1 and test 2” value with SPF Wistar/AF male rats [2] (Example 2, daily oral administration, day 6 vs. day 8) was “phenomenon of tolerance observed”. The overall stress score entry in the data set with SPF Wistar/AF male rats [2] (Example 3, last dose 6 hours before test (diazepam 1-3 mg/kg p.o. over 6 days, 1 hour before test), vs. control product L) is listed as “significantly lower overall stress scores; also recorded: significant antistress activity”; in the data set on SPF Wistar/AF male rats [2] (Example 5, test 1 hour after last dose (diazepam 1-3 mg/kg p.o., 1 hour before test), vs. control product L) it was “significantly lower than that of the control product L”.
